Measurements from paper PMC5913645, “Methyl phenlactonoates are efficient strigolactone analogs with simple structure” (Journal of Experimental Botany, 2017).

What was measured:
ShHTL7 [1] = biological target: T1, ShHTL7 (Striga hermonthica, UniProt A0A0M3PNA2); assay: Intrinsic tryptophan fluorescence assay, ShHTL7; type: binding
T1 sequence (A0A0M3PNA2 1-271): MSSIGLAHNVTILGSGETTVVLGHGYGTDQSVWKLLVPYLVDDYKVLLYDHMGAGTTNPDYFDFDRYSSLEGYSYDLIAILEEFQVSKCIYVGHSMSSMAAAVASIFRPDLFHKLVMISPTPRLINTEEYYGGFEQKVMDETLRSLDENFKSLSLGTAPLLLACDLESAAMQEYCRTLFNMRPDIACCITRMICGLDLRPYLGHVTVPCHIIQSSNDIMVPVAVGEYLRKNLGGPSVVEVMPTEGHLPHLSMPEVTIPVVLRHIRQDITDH
Excerpt: Striga hermonthica ShHTL7 cDNA was used, GenBank accession KR013127, kindly provided by Tsuyoshi Ota, The University of Tokyo, Japan. Arabidopsis D14 (AtD14) cDNA, GenBank accession AY097402, was synthesized and cloned into pUC57 (GenScript). ShHTL7 and OsD14 cDNAs were amplified by RT-PCR using the primers shown in Supplementary Table S2, digested with BamHI and XhoI, and ligated into BamHI/XhoI-digested pGEX-6P-1 expression vector (GE Healthcare). […] The plasmids were then transformed into E. coli BL21 (DE3) cells. The cells were grown in LB broth containing ampicillin ([…]), incubated at 37 °C until OD600 of 0.6 and induced with 0.1 mM isopropyl-β-D-thiogalactopyranoside at 16 °C for 16 h. Harvested cells were resuspended in lysis buffer: 50 mM Tris–HCl (pH 8.0), 200 mM NaCl, 0.5% Tween-20 and 2 mM dithiothreitol (DTT). After sonication on ice for 10 min, the lysate was centrifuged at 75 000 g for 30 min at 4 °C. Supernatant was allowed to bind to glutathione–sepharose beads (GE Healthcare) for 2 h at 4 °C, washed 3 times with buffer (50 mM Tris-HCl (pH 8.0), 200 mM NaCl, 2 mM DTT), and eluted by cleaving the GST moiety with PreScission™ Protease (GE Healthcare) at 4 °C overnight. […]

S. hermonthica seeds = assay: Striga hermonthica seed germination bioassay; type: in vivo; conditions: for EC50: Striga hermonthica, concentrations 10^–5 to 10^–12 M
Description: Parasitic weed seeds’ (S. hermonthica and P. ramosa) germination activity was studied as described previously ([Jamil et al., 2012]). Six pre-conditioned seed discs were placed in a 90 mm Petri dish containing a filter paper ring wetted with 0.9 ml sterile MilliQ water. Then 50 μl of SL analog solution (10^–5–10^–12 M) was applied on each of the six discs, for each concentration. GR24 solutions with equal concentrations and sterile MilliQ water were included as a positive and negative control, respectively. After application, seeds of S. hermonthica and P. ramosa were incubated in dark at 30 °C for 2 d and at 25 °C for 4 d, respectively. Germination (seeds with radicle emerging through the seed coat) was scored under a binocular microscope, and germination rate (%) was calculated. Statistical analyses were carried out using the statistical software package R (version 3.2.2). Dose–response curves and half-maximum effective concentrations (EC50) were calculated to determine optimum amount of MPs. The synthetic strigolactone analog GR24 was used as reference to estimate efficacy of selected compounds. EC50 and estimated response were calculated using the drc package (https://cran.r-project.org/web/packages/drc/) with a four parameter logistic curve (dose–response curve) ([Ritz and Streibig, 2005]).

rice leaf segments = assay: Dark-induced leaf senescence; design: species or system O. sativa, var. Shiokari; conditions: for transcript level of senescence-associated gene Osl20 / transcript level of senescence-associated gene Osl295: after 5 d of treatment; for change in color of leaf segments, earlier than the control / chlorophyll content of leaf segments / ion leakage of leaf segments compared with the control: dark; for change in color of leaf segments, earlier than the control: 30 °C, change on the third day after treatment; for chlorophyll content of leaf segments: on the third day; for ion leakage of leaf segments compared with the control: sixth and seventh day, no difference in the first 5 d
Description: One-week-old rice (O. sativa, var. Shiokari) seedlings were established as mentioned above. Uniform seedlings were transferred to 50 ml tubes containing half-strength Hoagland nutrient solution for 7 d and grown in an incubator under white fluorescent light (130–180 μmol m^−2 s^−1) with 16 h/8 h (L/D) at 28 °C for 1 week. Leaf segments of 2 cm were cut from middle part of third leaves of rice plants. Each segment was put in a well (in 24-well plates) containing 2 ml of 2.5 mM MES buffer with 0.05% Tween-20, and incubated at 30 °C in the dark for 7 d. After application of MPs, color change, chlorophyll content, ion leakage, and gene expression were monitored daily for 7 d.

ShHTL7 [2] = biological target: T1, ShHTL7; assay: In vitro hydrolysis assay, ShHTL7; type: biochemical; conditions: 10 µM substrate, 50 µg ml^−1 protein, 37 °C, HPLC
Excerpt: Striga hermonthica ShHTL7 cDNA was used, GenBank accession KR013127, kindly provided by Tsuyoshi Ota, The University of Tokyo, Japan. Arabidopsis D14 (AtD14) cDNA, GenBank accession AY097402, was synthesized and cloned into pUC57 (GenScript). ShHTL7 and OsD14 cDNAs were amplified by RT-PCR using the primers shown in Supplementary Table S2, digested with BamHI and XhoI, and ligated into BamHI/XhoI-digested pGEX-6P-1 expression vector (GE Healthcare). […] The plasmids were then transformed into E. coli BL21 (DE3) cells. The cells were grown in LB broth containing ampicillin ([…]), incubated at 37 °C until OD600 of 0.6 and induced with 0.1 mM isopropyl-β-D-thiogalactopyranoside at 16 °C for 16 h. Harvested cells were resuspended in lysis buffer: 50 mM Tris–HCl (pH 8.0), 200 mM NaCl, 0.5% Tween-20 and 2 mM dithiothreitol (DTT). After sonication on ice for 10 min, the lysate was centrifuged at 75 000 g for 30 min at 4 °C. Supernatant was allowed to bind to glutathione–sepharose beads (GE Healthcare) for 2 h at 4 °C, washed 3 times with buffer (50 mM Tris-HCl (pH 8.0), 200 mM NaCl, 2 mM DTT), and eluted by cleaving the GST moiety with PreScission™ Protease (GE Healthcare) at 4 °C overnight. Eluted protein was further purified by gel filtration using a HiLoad 16/60 Superdex200 prep grade column (GE Healthcare) on an AKTA prime system (GE Healthcare) in gel filtration buffer (10 mM HEPES pH 7.5, 50 mM KCl and 2 mM DTT). […] Purified protein was concentrated using an Amicon 10K filter unit (Merck Millipore) and stored at −80 °C until use. A similar expression and purification protocol was followed for OsD14 protein, except that OsD14 was eluted from glutathione resins using 0.2 mM reduced glutathione (Sigma-Aldrich) without cutting the GST tag.
The hydrolysis of GR24 and MPs by ShHTL7/OsD14 was performed in a total volume of 0.5 ml of phosphate-buffered saline containing 10 µM of substrate. Purified ShHTL7/OsD14 was added at a concentration of 50 µg ml^−1 and incubated for the indicated time at 37 °C. After adding 1-indanol (10 µl of a 2.5 mg ml^−1 solution in methanol), as internal standard, solutions were filtered and transferred to HPLC vials. […] The column was operated at 30 °C with a flow rate of 0.2 ml min^−1. Eluted compounds were detected using a diode array detector. Amounts of remaining substrates were determined by calculating corresponding peaks, in comparison with an internal standard.

Arabidopsis seedlings [3] = assay: Arabidopsis primary root length; type: in vivo; conditions: 1.0 μM
Description: (§1) Sterilized Arabidopsis seeds were sown on half-strength MS (with 0.5% sucrose+1% agar, 0.5 g l^−1 MES, pH 5.7) plates supplemented with GR24 or MPs (at 1.0 μM). Plates were stored at 4 °C in darkness for 3 d and then vertically grown at 22 °C in a Percival incubator under long day condition (16 h at 22 °C/8 h at 16 °C day/night, 60% relative humidity, 60–70 μmol m^−2 s^−1 white light) for 8 d. For determining the effect on lateral root density and primary root length, at least 30 seedlings were measured using ImageJ software after scanning roots.

Arabidopsis seedlings [4] = assay: Arabidopsis lateral root density; type: in vivo; conditions: 1.0 μM, 8-day-old seedlings
Description: as §1

| Compound | Kd (ShHTL7 [1]) [nM] | EC50 (S. hermonthica seeds) [nM] | transcript level of senescence-associated gene Osl20 (rice leaf segments) | transcript level of senescence-associated gene Osl295 (rice leaf segments) | change in color of leaf segments, earlier than the control (rice leaf segments) | chlorophyll content of leaf segments (rice leaf segments) | ion leakage of leaf segments compared with the control (rice leaf segments) | hydrolysis rate by ShHTL7 (rank order) (ShHTL7 [2]) | S. hermonthica germination rate (S. hermonthica seeds; 1.0 μM) [%] | Striga germination activity, times weaker than GR24 (S. hermonthica seeds; from EC50 values) | increase in primary root length (Arabidopsis seedlings [3]) | reduction of lateral root number/density (Arabidopsis seedlings [4]) | germination activity, order among the chlorophenyl compounds (S. hermonthica seeds; species not given) |
| --- | --- | --- | --- | --- | --- | --- | --- | --- | --- | --- | --- | --- | --- |
| CC1=CC(OC=C2C(=O)OC3c4ccccc4CC23)OC1=O (stereo not drawn) [GR24, reference compound] | 440 ± 210 | 0.091 | striking increase | striking increase | about 2 d | clear reduction | striking increase | highest hydrolysis rates with MP1, followed by MP7, GR24, and finally MP3 | – | – | – | – | – |
| COC(=O)/C(=C/OC1C=C(C)C(=O)O1)c1ccc([N+](=O)[O-])cc1 (stereo not drawn) [MP1, (E)-methyl 3-(4-methyl-5-oxo-2,5-dihydrofuran-2-yloxy)-2-(4-nitrophenyl)acrylate] | – | 1.5 | – | – | – | – | – | highest hydrolysis rates with MP1, followed by MP7, GR24, and finally MP3 | 75 | around 17 times | most active compound | most efficient compound and showed an activity higher than that of GR24 | – |
| COC(=O)/C(=C/OC1C=C(C)C(=O)O1)c1ccccc1 (stereo not drawn) [MP3, (E)-methyl 3-(4-methyl-5-oxo-2,5-dihydrofuran-2-yloxy)-2-phenylacrylate] | – | 87 | striking increase in their transcripts, which was more pronounced | striking increase in their transcripts, which was more pronounced | about 2 d | clear reduction | striking increase | highest hydrolysis rates with MP1, followed by MP7, GR24, and finally MP3 | – | – | weaker activity than GR24 and MP8 | – | – |
| COC(=O)/C(=C/OC1C=C(C)C(=O)O1)c1ccc(Cl)cc1 (stereo not drawn) [MP7] | 1150 ± 310 | – | – | – | – | – | – | highest hydrolysis rates with MP1, followed by MP7, GR24, and finally MP3 | – | – | more efficient than GR24 | slightly more active than GR24 | highest germination activity with MP7 (Cl in para position) followed by MP9 (ortho position) and MP8 (meta position) |
